{"source": "patent US20140255432A1", "about": "“SILVESTROL, SILVESTROL ANALOGS AND USES THEREOF” (priority 2011, published 2014)", "key": {"[1]": {"system": "immune effector subsets (CD3+/CD4+, CD3+/CD8+, CD3-/CD56+)", "test": "Irradiated LCL / autologous PBMC co-cultures, flow cytometry", "format": "cell-based, human", "conditions": "14 days", "method": "Lymphoblastoid cell lines (LCL) were derived in vivo by engrafting severe combined immune-deficient (SCID) mice (Taconic, Hudson N.Y.) with human peripheral blood mononuclear cells (PBMC) from a healthy EBV-positive donor as described (Rowe 1991; Baiocchi 1994). Co-cultures (Cocx) were created by mixing 5×10^4 LCL (either non-irradiated or irradiated with 14000 rad) per well with equal numbers of autologous PBMC in 96-well plates. Cultures were grown in the presence of 10 U/mL IL-2 and were given a single dose of silvestrol and cultured for 10-14 days.\n(§1) Cells from irradiated or non-irradiated co-cultures were co-stained with LIVE/DEAD cell stain (Invitrogen, Grand Island, N.Y.) and hu-CD3-APC and either hu-CD4-PE, hu-CD-8-PE, hu-CD19-PE (BD Biosciences, San Diego, Calif.), or hu-CD56-PE (Beckman Coulter, Brea, Calif.). Live events were gathered by gating on cells negative for the LIVE/DEAD stain on an FC500 cytometer (Beckman Coulter). Cell viability was also measured by flow cytometry at 24, 72, and 120 hr using annexin-V-FITC and propidium iodide (PI) according to the manufacturer's instructions (BD Biosciences).\nTo explore the immune modulatory activity of silvestrol in EBV-LPD, in vitro co-cultures (CoCx) were used. These cultures were created by lethally irradiating LCL lines and mixing them at a ratio of 1:1 with PBMC from the same healthy donor from which the LCL was derived. The PBMC are activated and expand in response to the antigenic stimuli from the EBV-infected LCL (Rowe 1991; Baiocchi 1994; Mosier 1995). CoCx created using three LCL and their respective autologous PBMC were incubated in the presence of 10 U/mL IL-2 and treated with 0 (vehicle only), 2, 5, or 10 nM silvestrol for 14 days. Flow cytometric analysis was conducted. Cells were gated on Live events were gathered by gating on cells negative for the LIVE/DEAD stain. Data are expressed as percentage of viable population, relative to the vehicle CoCx condition, for total cells, CD3^+/CD4^+, CD3^+/C8^+, and CD3^−CD56^+ cells. Results shown are the averages from three individual CoCx. […] As the irradiated LCL were absent by this time, silvestrol allowed for expansion of the normal effector population following LCL exposure."}, "[2]": {"system": "EBV-positive lymphoblastoid cell lines (LCL)", "test": "MTS proliferation assay", "format": "cell-based, human", "method": "MTS proliferation assays were performed according the CellTiter 96™ Aqueous Cell Proliferation Assay Technical Bulletin (Promega, Madison, Wis.). 5×10^4 cells were plated in each well of a 96-well plate at 37° C. and assayed for proliferation at 24, 72, and 120 hr.\n(§2) The direct anti-tumor activity of silvestrol in leukemia and lymphoma models has been document (Hwang 2004; Bordeleau 2008; Cencic 2009; Lucas 2009 Alinari 2011; Saradhi 2011) as well as silvestrol's increased cytotoxicity to malignant B cells compared to normal blood lymphocytes (Lucas 2009). However, activity of silvestrol has not previously been described in spontaneous EBV-transformed cell lines. Silvestrol's activity in fully transformed EBV-positive LCL derived from tumors of SCID mice engrafted with PBMC from EBV-seropositive donors was observed. Six of these EBV-LCL lines were plated in the presence of low concentrations of silvestrol (2-50 nM), and apoptosis (viability assessed by annexin/PI flow cytometry) (FIG. 2A) and proliferation (MTS assay) (FIG. 2B) were evaluated at 24, 72, and 120 hr. Cells were plated at a sufficiently low density so that even after five days there was minimal loss of viability due to nutrient depletion in the untreated control. In FIG. 2A, data are shown as percent annexin-negative and PI-negative cells relative to the time-matched vehicle control. Bars show −/+ standard deviation. […]"}, "[3]": {"system": "EBV-positive lymphoblastoid cell lines (LCL)", "test": "Apoptosis/viability by annexin/PI flow cytometry", "format": "cell-based, human", "conditions": "2-50 nM; 24, 72, 120 hr; p=0.006 averaged over doses and time points", "method": "as §1\nas §2, with “hr.” for “hr. Cells were plated at a sufficiently low density so that even after five days there was minimal loss of viability due to nutrient depletion in the untreated control. In FIG. 2A, data are shown as percent annexin-negative and PI-negative cells relative to the time-matched vehicle control. Bars show −/+ standard deviation.”"}, "EBV-LPD": {"system": "EBV-LPD", "test": "hu-PBL-SCID model of EBV-LPD", "format": "in vivo, SCID mice", "method": "Six week-old female SCID mice (n=28) received anti-asialo antisera prior to engraftment to deplete murine NK cells. Mice were engrafted intraperitoneally with 5×10^7 peripheral blood mononuclear cells (PBMCs) obtained from EBV-positive, healthy donor. Untreated mice in this model develop lethal disseminated (human) lymphoma; median survival varies by PBMC donor for that experiment. Two weeks post-engraftment, treatments were initiated with either vehicle (30% HBPCD) or vehicle+silvestrol (1.5 mg/kg every 48 hrs; n=14 each). 4 and 8 weeks post-engraftment, 2 mice from each group were sacrificed for examination and blood was drawn from all mice to assess human IgG levels (FIG. 23). The remainder of mice (n=10 each) were followed for survival. Survival is defined as absence of IACUC-approved euthanasia criteria (in this model, typically this is weight loss >20%, together with labored breathing and cessation of grooming).\nThe Hu-PBL-SCID mouse model has been described (Mosier 1992). Human PBMCs were obtained from a healthy EBV seropositive donor. 5×10^7 cells were injected intraperitoneally (IP) into 6 week-old female SCID mice (Taconic) that were NK cell-depleted by pretreatment with anti-asialo (GM1) (Wako Pure Chemical Industries, Richmond, Va.). Engraftment was confirmed by hu-IgG ELISA from serum as described (Baiocchi 1994). Silvestrol treatment began two weeks post-engraftment.\nThe hu-PBL SCID model has been used to study the effect of compounds on spontaneously derived EBV-driven lymphomas (Fuzzati-Armentero 1998). PBMC from a healthy EBV-positive donor were injected into a group of SCID mice that had been pretreated with anti-asialo (GM1) to deplete murine NK cells. Mice were randomized (n=14/group) and treatment with 1.5 mg/kg silvestrol or vehicle control every 48 hr began two weeks after engraftment. Two weeks after treatment began (four weeks post-engraftment), an ELISA was performed to evaluate human IgG. […] At 4 and 8 weeks post-engraftment, flow cytometry analysis was performed on spleen cells from two mice in each group. […] Spleens were also obtained from mice as the disease progressed and euthanasia criteria were met. […] During the 140-day experiment, the health of the mice was tracked by body weight. Weights of all mice were checked twice weekly."}, "[4]": {"conditions": "1.5 mg/kg every 48 hr, 140-day experiment"}}}
{"compound": "COC(=O)[C@H]1[C@@H](O)[C@@]2(O)c3c(OC)cc(O[C@@H]4O[C@@H]([C@H](O)CO)CO[C@H]4OC)cc3O[C@@]2(c2ccc(OC)cc2)[C@@H]1c1ccccc1", "note": "[silvestrol]", "values": [{"measurement": "total number of cells expanded in CoCx", "setting": "[1]; 10 nM, 10 U/mL IL-2", "value": "lower than in the vehicle controls"}, {"measurement": "CD4+ T helper cell population relative to untreated CoCx", "setting": "[1]; 2, 5, 10 nM", "value": "mild decrease"}, {"measurement": "CD8+ cytotoxic T cell population relative to untreated CoCx", "setting": "[1]; 2, 5, 10 nM", "value": "mild decrease"}, {"measurement": "CD56+ natural killer cell population relative to untreated CoCx", "setting": "[1]; 2, 5, 10 nM", "value": "relative increase"}, {"measurement": "growth inhibition vs. untreated control", "setting": "[2]; 2-50 nM, 24, 72, 120 hr, p<0.0001 averaged over doses and time points", "value": "Moderate but significant activity"}, {"measurement": "IC50", "setting": "[2]; Homo sapiens, Lymphoblastoid cell, six EBV-LCL lines, 72 hr, estimated, read-out: 50% growth inhibitory concentration (IC50)", "value": "~40", "unit": "nM"}, {"measurement": "apoptosis vs. untreated control", "setting": "[3]", "value": "Moderate but significant activity"}, {"measurement": "signs of disease at the end of the study (flow cytometry of spleen cells)", "setting": "EBV-LPD; 1.5 mg/kg every 48 hr", "value": "no signs of disease"}, {"measurement": "engraftment of human PBMCs (human immunoglobulin production)", "setting": "EBV-LPD; 1.5 mg/kg every 48 hr (FIG. 23)", "value": "did not affect engraftment"}, {"measurement": "EBV-LPD infiltration of the spleen (flow cytometry)", "setting": "EBV-LPD; 1.5 mg/kg every 48 hr, 4 and 8 weeks post-engraftment", "value": "no tumor burden"}, {"measurement": "body weight compared to vehicle-treated mice", "setting": "EBV-LPD; [4]", "value": "gain weight at a faster pace"}, {"measurement": "ill effects from long-term treatment", "setting": "EBV-LPD; [4]", "value": "did not show observable ill effects"}, {"measurement": "mean spleen weight", "setting": "EBV-LPD; 1.5 mg/kg every 48 hr, after completion of the experiment at day 140", "value": 72.9, "unit": "mg"}, {"measurement": "production of human IgG by xenografted B-lymphocytes", "setting": "EBV-LPD; 1.5 mg/kg every 48 hr, four weeks post-engraftment", "value": "did not affect"}, {"measurement": "mice alive at day 140 (overall survival)", "setting": "EBV-LPD; 1.5 mg/kg every 48 hr, p<0.001 vs. vehicle", "value": "7/7"}]}
